Data as given in article PMC7242257, “Impact of Magnesium Stearate Presence and Variability on Drug Apparent Solubility Based on Drug Physicochemical Properties” (The AAPS Journal, 2020).

Assays:
[1] = set-up: method as in earlier work; details: based on BCS classification (20); ref (24), (26), (28), (29), (31), (34), (35), (38); cited from earlier work
[2] = Relative effect of MgSt on drug apparent solubility (shake-flask, physical mixtures); details: phosphate buffer pH 6.8
Protocol: Drug solubility studies in the absence and presence of excipient were performed in triplicate using the shake-flask method [41]. Drug excess amount and 2% w/w or 5% w/w of each excipient were weighed and placed in centrifuge tubes. […] The physical mixtures were vortexed for 3 min. Five millilitres of each medium was added in the tubes and the samples were placed in a shaking water bath (37°C, 200 strokes per minute (spm)). […] Filter adsorption studies were performed prior in triplicate for each drug. […] Filtered samples were further diluted (if needed) with the corresponding medium and analysed by HPLC (Supplementary Table I). […] Drug quantification was made based on calibration curves. Standards were formulated from concentrated stock solutions consisting of drug dissolved in MeOH. As changes in the pH of solutions by the presence of the dissolved drug [34] or MgSt [43, 44] may affect drug solubility, the pH of samples after the completion of each experiment was measured. Drug solubility was calculated based on the sample drug concentration measured.
The relative effect (RE) of each excipient on drug apparent solubility was calculated based on Eq.

CCC(C)n1ncn(-c2ccc(N3CCN(c4ccc(OCC5COC(Cn6cncn6)(c6ccc(Cl)cc6Cl)O5)cc4)CC3)cc2)c1=O (centres unmarked) [ITZ, Itraconazole]
Solubility (BCS-based class) [1]: Low (38)

OCCN(CCO)c1nc(N2CCCCC2)c2nc(N(CCO)CCO)nc(N3CCCCC3)c2n1 [DPL, Dipyridamole]
Solubility (BCS-based class) [1]: Low (34)

NC(=O)N1c2ccccc2C=Cc2ccccc21 [CBZ, Carbamazepine]
Solubility (BCS-based class) [1]: Low (31)
Relative effect (RE) on drug solubility at 24 h ([2]; 2% Ligamed MF-2-V): 29%
Relative effect (RE) on drug solubility at 24 h ([2]; 2% Ligamed MF-3-V): 27%
